Data reported in PubChem BioAssay (NCI).
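Cells were grown in 96-well plates and exposed to each compound for 48 hours at five concentrations; endpoints were interpolated linearly between bracketing concentrations, or set to the highest concentration if not reached. GI50 = concentration required for 50% inhibition of growth. TGI is the concentration that stops growth completely.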

Assays:
Assay in all cases: inhibition of tumour cell growth, NCI panel, 48 h
MDA-MB-435 = test system: MDA-MB-435
SNB-19 CNS = test system: SNB-19 CNS
MALME-3M melanoma = test system: MALME-3M melanoma
RPMI-8226 leukemia = test system: RPMI-8226 leukemia
CCRF-CEM leukemia = test system: CCRF-CEM leukemia
SF-539 CNS = test system: SF-539 CNS
HOP-92 NSCLC = test system: HOP-92 NSCLC
HS 578T breast = test system: HS 578T breast
SK-MEL-5 melanoma = test system: SK-MEL-5 melanoma
T-47D breast = test system: T-47D breast
SN12C renal = test system: SN12C renal
A549 NSCLC = test system: A549 NSCLC
SR leukemia = test system: SR leukemia
SK-MEL-2 melanoma = test system: SK-MEL-2 melanoma
SF-295 CNS = test system: SF-295 CNS
MCF7 breast = test system: MCF7 breast
A498 renal = test system: A498 renal
LOX IMVI melanoma = test system: LOX IMVI melanoma
NCI-H522 lung = test system: NCI-H522 lung
HCT-15 colon = test system: HCT-15 colon
K-562 leukemia = test system: K-562 leukemia
BT-549 breast = test system: BT-549 breast
HCC-2998 colon = test system: HCC-2998 colon
UACC-257 melanoma = test system: UACC-257 melanoma
HCT-116 colon = test system: HCT-116 colon
786-0 renal = test system: 786-0 renal
KM12 colon = test system: KM12 colon
PC-3 prostate = test system: PC-3 prostate
NCI-H23 lung = test system: NCI-H23 lung
OVCAR-3 ovarian = test system: OVCAR-3 ovarian
OVCAR-8 ovarian = test system: OVCAR-8 ovarian
M14 melanoma = test system: M14 melanoma
SK-OV-3 ovarian = test system: SK-OV-3 ovarian
IGROV1 ovarian = test system: IGROV1 ovarian
TK-10 renal = test system: TK-10 renal
EKVX NSCLC = test system: EKVX NSCLC
SF-268 CNS = test system: SF-268 CNS
MDA-MB-231 breast = test system: MDA-MB-231 breast
DU-145 prostate = test system: DU-145 prostate
CAKI-1 renal = test system: CAKI-1 renal
SK-MEL-28 melanoma = test system: SK-MEL-28 melanoma
RXF 393 renal = test system: RXF 393 renal
ACHN renal = test system: ACHN renal
UACC-62 melanoma = test system: UACC-62 melanoma
OVCAR-5 ovarian = test system: OVCAR-5 ovarian
NCI-H460 lung = test system: NCI-H460 lung
SNB-75 CNS = test system: SNB-75 CNS
NCI/ADR-RES ovarian = test system: NCI/ADR-RES ovarian
NCI-H226 lung = test system: NCI-H226 lung
SW-620 colon = test system: SW-620 colon
UO-31 renal = test system: UO-31 renal

COc1cc2nccc(Oc3ccc(NC(=O)C4(C(=O)Nc5ccc(F)cc5)CC4)cc3)c2cc1OC(=O)c1ccc(N)cc1
GI50 (MDA-MB-435): 2.18 µM | TGI (MDA-MB-435): > 100 µM | GI50 (SNB-19 CNS): 3.05 µM | TGI (SNB-19 CNS): > 100 µM | GI50 (MALME-3M melanoma): 2.47 µM | TGI (MALME-3M melanoma): > 100 µM | GI50 (RPMI-8226 leukemia): 2.66 µM | TGI (RPMI-8226 leukemia): > 100 µM | GI50 (CCRF-CEM leukemia): 2.6 µM | TGI (CCRF-CEM leukemia): > 100 µM | GI50 (SF-539 CNS): 0.246 µM | TGI (SF-539 CNS): 2.04 µM | GI50 (HOP-92 NSCLC): 0.2 µM | TGI (HOP-92 NSCLC): 2.42 µM | GI50 (HS 578T breast): 0.29 µM | TGI (HS 578T breast): 2.07 µM | GI50 (SK-MEL-5 melanoma): 4.46 µM | TGI (SK-MEL-5 melanoma): > 100 µM | GI50 (T-47D breast): 2.92 µM | TGI (T-47D breast): > 100 µM | GI50 (SN12C renal): 1.39 µM | TGI (SN12C renal): > 100 µM | GI50 (A549 NSCLC): 3.11 µM | TGI (A549 NSCLC): > 100 µM | GI50 (SR leukemia): 0.626 µM | TGI (SR leukemia): > 100 µM | GI50 (SK-MEL-2 melanoma): 2.38 µM | TGI (SK-MEL-2 melanoma): 14.5 µM | GI50 (SF-295 CNS): 0.262 µM | TGI (SF-295 CNS): 1.47 µM | GI50 (MCF7 breast): 1.72 µM | TGI (MCF7 breast): > 100 µM | GI50 (A498 renal): 2.03 µM | TGI (A498 renal): 4.53 µM | GI50 (LOX IMVI melanoma): 1.92 µM | TGI (LOX IMVI melanoma): 5.31 µM | GI50 (NCI-H522 lung): 2.65 µM | TGI (NCI-H522 lung): > 100 µM | GI50 (HCT-15 colon): 2.17 µM | TGI (HCT-15 colon): > 100 µM | GI50 (K-562 leukemia): 1.09 µM | TGI (K-562 leukemia): 4.91 µM | GI50 (BT-549 breast): 2.88 µM | TGI (BT-549 breast): > 100 µM | GI50 (HCC-2998 colon): 3.88 µM | TGI (HCC-2998 colon): > 100 µM | GI50 (UACC-257 melanoma): 4.91 µM | TGI (UACC-257 melanoma): > 100 µM | GI50 (HCT-116 colon): 3.08 µM | TGI (HCT-116 colon): > 100 µM | GI50 (786-0 renal): 1.81 µM | TGI (786-0 renal): 4.45 µM | GI50 (KM12 colon): 0.0936 µM | TGI (KM12 colon): > 100 µM | GI50 (PC-3 prostate): 2.5 µM | TGI (PC-3 prostate): > 100 µM | GI50 (NCI-H23 lung): 1.98 µM | TGI (NCI-H23 lung): > 100 µM | GI50 (OVCAR-3 ovarian): 4.36 µM | TGI (OVCAR-3 ovarian): > 100 µM | GI50 (OVCAR-8 ovarian): 5.77 µM | TGI (OVCAR-8 ovarian): > 100 µM | GI50 (M14 melanoma): 2.79 µM | TGI (M14 melanoma): > 100 µM | GI50 (SK-OV-3 ovarian): 2.95 µM | TGI (SK-OV-3 ovarian): 8.05 µM | GI50 (IGROV1 ovarian): 6.92 µM | TGI (IGROV1 ovarian): > 100 µM | GI50 (TK-10 renal): 6.62 µM | TGI (TK-10 renal): > 100 µM | GI50 (EKVX NSCLC): 5.31 µM | TGI (EKVX NSCLC): > 100 µM | GI50 (SF-268 CNS): 1.63 µM | TGI (SF-268 CNS): > 100 µM | GI50 (MDA-MB-231 breast): 1.98 µM | TGI (MDA-MB-231 breast): 6.53 µM | GI50 (DU-145 prostate): 3.48 µM | TGI (DU-145 prostate): > 100 µM | GI50 (CAKI-1 renal): 2.68 µM | TGI (CAKI-1 renal): > 100 µM | GI50 (SK-MEL-28 melanoma): 1.34 µM | TGI (SK-MEL-28 melanoma): 5.16 µM | GI50 (RXF 393 renal): 0.314 µM | TGI (RXF 393 renal): 1.99 µM | GI50 (ACHN renal): 3.73 µM | TGI (ACHN renal): > 100 µM | GI50 (UACC-62 melanoma): 2.85 µM | TGI (UACC-62 melanoma): > 100 µM | GI50 (OVCAR-5 ovarian): 2.23 µM | TGI (OVCAR-5 ovarian): > 100 µM | GI50 (NCI-H460 lung): 3.49 µM | TGI (NCI-H460 lung): 54.2 µM | GI50 (SNB-75 CNS): 0.199 µM | TGI (SNB-75 CNS): 1.39 µM | GI50 (NCI/ADR-RES ovarian): 3.74 µM | TGI (NCI/ADR-RES ovarian): > 100 µM | GI50 (NCI-H226 lung): 3.11 µM | TGI (NCI-H226 lung): > 100 µM | GI50 (SW-620 colon): 2.92 µM | TGI (SW-620 colon): > 100 µM | GI50 (UO-31 renal): 1.58 µM | TGI (UO-31 renal): 6.58 µM
